According to US20050154010A1 (The Regents of University of California, priority 2002, published 2005):
Structures can show the parent of a compound that is named as a salt. Values belong to the molecule of their own block, whether it stands above or below them.

Tests used:
LOX IMVI = assay: NCI In Vitro Cell Line Screening; type: cell-based; conditions: Homo sapiens, Melanoma
Experimental: (§1) The human tumor cell lines of the cancer screening panel are grown in RPMI 1640 medium containing 5% fetal bovine serum and 2 mM L-glutamine. For a typical screening experiment, cells are inoculated into 96 well microtiter plates in 100 μL at plating densities ranging from 5,000 to 40,000 cells/well depending on the doubling time of individual cell lines. After cell inoculation, the microtiter plates are incubated at 37° C., 5% CO2, 95% air and 100% relative humidity for 24 h prior to addition of experimental drugs. After 24 h, two plates of each cell line are fixed iin situ with TCA, to represent a measurement of the cell population for each cell line at the time of drug addition (Tz).
(§2) Experimental drugs are solubilized in dimethyl sulfoxide at 400-fold the desired final maximum test concentration and stored frozen prior to use. At the time of drug addition, an aliquot of frozen concentrate is thawed and diluted to twice the desired final maximum test concentration with complete medium containing 50 μg/ml gentamicin. Additional four, 10-fold or ½ log serial dilutions are made to provide a total of five drug concentrations plus control. Aliquots of 100 μl of these different drug dilutions are added to the appropriate microtiter wells already containing 100 μl of medium, resulting in the required final drug concentrations. Following drug addition, the plates are incubated for an additional 48 h at 37° C., 5% CO2, 95% air, and 100% relative humidity. For adherent cells, the assay is terminated by the addition of cold TCA.
(§3) Cells are fixed in situ by the gentle addition of 50 μl of cold 50% (w/v) TCA (final concentration, 10% TCA) and incubated for 60 minutes at 4° C. The supernatant is discarded, and the plates are washed five times with tap water and air-dried. Sulforhodamine B (SRB) solution (100 μl) at 0.4% (w/v) in 1% acetic acid is added to each well, and plates are incubated for 10 minutes at room temperature. After staining, unbound dye is removed by washing five times with 1% acetic acid and the plates are air dried. Bound stainis subsequently solubilized with 10 mM trizma base, and the absorbance is read on an automated plate reader at a wavelength of 515 nm. For suspension cells, the methodology is the same except that the assay is terminated by fixing settled cells at the bottom of the wells by gently adding 50 μl of 80% TCA (final concentration, 16% TCA). Using the seven absorbance measurements [time zero, (Tz), control growth, (C), and test growth in the presence of drug at the five concentration levels ( ? )], tile percentage growth is calculated at each of the drug concentrations levels. Percentage growth inhibition is calculated as: [(Ti−Tz)/(C−Tz)]×100 for concentrations for which Ti>/=Tz [(Ti−Tz)/Tz]×100 for concentrations for which Ti<Tz
(§4) Three dose-response parameters are calculated for each experimental agent. Growth inhibition of 50% (GI50) is calculated from [(Ti−Tz)/(C−Tz)]×100=50, which is the drug concentration resulting in a 50% reduction in the net protein increase (as measured by SRB staining) in control cells during the drug incubation. The drug concentration resulting in total growth inhibition (TGI) is calculated from Ti=Tz. The LC50 (concentration of drug resulting in a 50% reduction in the measured protein at the end of the drug treatment as compared to that at the beginning) indicating a net loss of cells following treatment is calculated from [(Ti−Tz)/Tz]×100=−50. Values are calculated for each of these three parameters if the level of activity is reached; however, if the effect is not reached or is exceeded, the value for that parameter is expressed as greater or less than the maximum or minimum concentration tested.

OVCAR-4 = assay: NCI In Vitro Cell Line Screening; type: cell-based; conditions: Homo sapiens; OVCAR-4, Ovarian Carcinoma
Experimental: as §1, §2, §3, §4

CAK-1 = assay: NCI In Vitro Cell Line Screening; type: cell-based; conditions: Homo sapiens; CAK-1, Renal Cell Carcinoma
Experimental: as §1, §2, §3, §4

HCC-2998 = assay: NCI In Vitro Cell Line Screening; type: cell-based; conditions: Homo sapiens; HCC-2998, Colon Cancer
Experimental: as §1, §2, §3, §4

NCI-H460 = assay: NCI In Vitro Cell Line Screening; type: cell-based; conditions: Homo sapiens; NCI-H460, Non-Small Cell Lung Cancer
Experimental: as §1, §2, §3, §4

RXF 393 = assay: NCI In Vitro Cell Line Screening; type: cell-based; conditions: Homo sapiens; RXF 393, Renal Cell Carcinoma
Experimental: as §1, §2, §3, §4

SK-MEL-5 = assay: NCI In Vitro Cell Line Screening; type: cell-based; conditions: Homo sapiens; SK-MEL-5, Melanoma
Experimental: as §1, §2, §3, §4

NCI-H23 = assay: NCI In Vitro Cell Line Screening; type: cell-based; conditions: Homo sapiens; NCI-H23, Non-Small Cell Lung Cancer
Experimental: as §1, §2, §3, §4

[1] = system: 60 human tumor cell lines; assay: cells; type: cell-based
Text: The operation of this screen utilizes 60 different human tumor cell lines, representing leukemia, melanoma, and cancers of the lung, colon, brain, ovary, breast, prostate, and kidney. The aim is to prioritize for further evaluation, synthetic compounds or natural product samples showing selective growth inhibition or cell killing of particular tumor cell lines. This screen is unique in that the complexity of a 60-cell line dose response produced by a given compound results in a biological response pattern which can be utilized in pattern recognition algorithms. Using these algorithms, it is possible to assign a putative mechanism of action to a test compound, or to determine that the response pattern is unique and not similar to that of any of the standard prototype compounds included in the NCI database (see DTP Overview tab). In addition, following characterization of various cellular molecular targets in the 60 cell lines, it may be possible to select compounds most likely to interact with a specific molecular target.
as §1
Experimental drugs are solubilized in dimethyl sulfoxide at 400-fold the desired final maximum test concentration and stored frozen prior to use. […]
Cells are fixed in situ by the gentle addition of 50 μl of cold 50% (w/v) TCA (final concentration, 10% TCA) and incubated for 60 minutes at 4° C. […] Bound stainis subsequently solubilized with 10 mM trizma base, and the absorbance is read on an automated plate reader at a wavelength of 515 nm. […] Using the seven absorbance measurements [time zero, (Tz), control growth, (C), and test growth in the presence of drug at the five concentration levels ( ? )], tile percentage growth is calculated at each of the drug concentrations levels. Percentage growth inhibition is calculated as: [(Ti−Tz)/(C−Tz)]×100 for concentrations for which Ti>/=Tz [(Ti−Tz)/Tz]×100 for concentrations for which Ti<Tz
Three dose-response parameters are calculated for each experimental agent. […]

[2] = in vivo; cited from earlier work
[3] = system: Chronic lymphocytic leukemia cells (CLL); assay: Viable CLL cells after 48 hours exposure, dye exclusion and flow cytometric analysis; type: cell-based, human
Experimental: (§5) After 48 hours exposure, the number of viable cells was determined by dye exclusion and flow cytometric analysis.

[4] = in vivo; cited from earlier work; remark: listed apart in the source
[5] = system: Chronic lymphocytic leukemia cells (CLL); assay: Flow cytometry (propidium iodide, DiOC6) of CLL cells after 24 hours exposure; type: cell-based, human; conditions: 10 μM, FIG. 2
Experimental: After 24 hours exposure, the percentage of living (lower-right corner), apoptotic (lower-left corner) and dead (higher-left corner) were analyzed by flow cytometry using propidium iodide (y axis) and DiOC6 (x axis). The results, showing the activity of the (+) and (−) enantiomers against CLL cells, are seen in FIG. 2.

MDA-231 = assay: MTT assay, cell viability; type: cell-based; conditions: MDA-231, Breast, 72 hours exposure
Experimental: (§6) After 72 hours exposure, the viability of the cells was determined by the rate of conversion of the formazan salt measuring the optical density (OD) at 570 nm (MTT assay).

RAJI = assay: MTT assay, cell viability; type: cell-based; conditions: Lymphoma, 72 hours exposure
Experimental: as §6

SU-DHL1 = assay: MTT assay, cell viability; type: cell-based; conditions: SU-DHL1, Lymphoma, 72 hours exposure
Experimental: as §6

LNCap = assay: MTT assay, cell viability; type: cell-based; conditions: Prostate, 72 hours exposure
Experimental: as §6

10C9 = assay: MTT assay, cell viability; type: cell-based; conditions: 10C9, Lymphoma, 72 hours exposure
Experimental: as §6

HCT-116 = assay: MTT assay, cell viability; type: cell-based; conditions: HCT-116, Colon, 72 hours exposure
Experimental: as §6

MCF7 = assay: MTT assay, cell viability; type: cell-based; conditions: MCF7, Breast, 72 hours exposure
Experimental: as §6

RPMI8226 = assay: MTT assay, cell viability; type: cell-based; conditions: RPMI8226, Myeloma, 72 hours exposure
Experimental: as §6

SU-DHL9 = assay: MTT assay, cell viability; type: cell-based; conditions: SU-DHL9, Lymphoma, 72 hours exposure
Experimental: as §6

U266 = assay: MTT assay, cell viability; type: cell-based; conditions: U266, Myeloma, 72 hours exposure
Experimental: as §6

[6] = cited from earlier work
[7] = system: control normal lymphocytes (PBL); assay: Viable normal lymphocytes after 48 hours exposure, dye exclusion and flow cytometric analysis; type: cell-based, human; conditions: 10 μM
Experimental: as §5

[8] = system: peripheral blood T lymphocytes; conditions: Meng et al. 1997; cited from earlier work
CLL cells = conditions: Lagneaux et al. 2001; not feasible in vivo due to toxicity; cited from earlier work
[9] = cited from earlier work; remark: listed apart in the source

Molecule: O[C@H](c1cc(C(F)(F)F)nc2c(C(F)(F)F)cccc12)[C@@H]1CCCCN1 (racemic) [Mefloquine, (R*,S*)-(±)-alpha-2-piperidinyl-2,8-bis(trifluoromethyl)-4-quinolinemethanol]
- GI50 (LOX IMVI): 1.3 µM
- GI50 (OVCAR-4): 1.9 µM
- GI50 (CAK-1): 0.1 µM
- GI50 (HCC-2998): 2 µM
- GI50 (NCI-H460): 2.1 µM
- GI50 (RXF 393): 1.7 µM
- GI50 (SK-MEL-5): 2 µM
- GI50 (NCI-H23): 2.8 µM
- CC50 ([1]; Homo sapiens, 48 h, read-out: Mean LC50): 87 µM
- GI50 ([1]; Homo sapiens, mean over 60 tumor cell lines, 48 h, SRB): 4 µM
- Mean TGI50 ([1]; mean over 60 tumor cell lines, 48 h, SRB): 26 µM
- number of the 60 cell lines against which active ([1]; of the 60 cell lines in the screen): 58
- bioavailability [2]: 80%
- concentration effective against CLL cells [3]: ≤ 10 µM

Molecule: O[C@H](c1cc(C(F)(F)F)nc2c(C(F)(F)F)cccc12)[C@@H]1CCCCN1 [(+)-mefloquine]
- passage of the blood brain barrier / accumulation in the brain [4]: accumulate in the brain
- activity against CLL cells [5]: activity

- IC50 (RAJI): 30 µM
- IC50 (SU-DHL1): 20 µM
- IC50 (LNCap): 25 µM
- IC50 (HCT-116): 12 µM
- IC50 (MCF7): 20 µM
- IC50 (RPMI8226): 15 µM
- IC50 (SU-DHL9): 15 µM
- IC50 (U266): 25 µM
Molecule: OC(c1cc(C(F)(F)F)nc2c(C(F)(F)F)cccc12)C1CCCCN1 (single isomer, unassigned; (-)) [(−)Mefloquine]
- passage of the blood brain barrier / accumulation in the brain [4]: does not seem to pass the blood brain barrier
- activity against CLL cells [5]: activity
- IC50 (MDA-231): 40 µM
- IC50 (10C9): 20 µM

Molecule: 2,8-bis-trifluorornethyl-4-quinoline carboxylic acid [Metabolite]
- level accumulated in the plasma ([6]; plasma): up to 10 μM
- Mean (SD) trough concentration, Plasma ([6]; plasma, ten healthy volunteers, 250 mg once weekly for 16 weeks, steady state at week 16): 9.80 (5.07) μmol · 1^−1
- Mean (SD) trough concentration, Serum ([6]; serum, ten healthy volunteers, 250 mg once weekly for 16 weeks, steady state at week 16): 9.44 (5.00) μmol · 1^−1
- Mean (SD) trough concentration, Whole Blood ([6]; whole blood, ten healthy volunteers, 250 mg once weekly for 16 weeks, steady state at week 16): 4.89 (2.58) μmol · 1^−1

Molecule: O[C@H](c1cc(C(F)(F)F)nc2c(C(F)(F)F)cccc12)[C@@H]1CCCCN1 (relative stereo) [Mefloquine, (R*,S*)-(±)-alpha-2-piperidinyl-2,8-bis(trifluoromethyl)-4-quinolinemethanol]
- apoptosis induction in normal lymphocytes [7]: not against normal lymphocytes
- apoptosis induction in CLL cells ([3]; 10 μM, 48 hours exposure): inducing potent apoptosis

Molecule: CCN(CCO)CCCC(C)Nc1ccnc2cc(Cl)ccc12 (centres unmarked) [hydroxychloroquine]
- apoptosis induction in peripheral blood T lymphocytes [8]: induce apoptosis
- concentration active against CLL cells (CLL cells): ≥ 30 µg/mL

Molecule: OC(c1cc(C(F)(F)F)nc2c(C(F)(F)F)cccc12)C1CCCCN1 (centres unmarked) [Mefloquine hydrochloride]
- solubility in ethanol ([9]; ethanol): soluble
- solubility in water ([9]; water): slightly soluble
